In patent EP4653437A2 (Innovo Therapeutics Inc., priority 2023, dated 2024):

Legend:
A549 cells = assay: Measurement of PGE2-increasing activity in A549 cells (IL-1β stimulated, PGE2 quantified in supernatant); assay type: cell-based; conditions: Homo sapiens, 24 h; concentration of 1 µM of each compound; IL-1β treated A549 cells; read-out: Increased PGE2 production in A549 cells
How it was run: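 A549 cells grown 24 h in F12K with 10% FBS, then switched to serum-free medium with or without IL-1β and compound (0.1% DMSO final). After 24 h at 37 °C, 5% CO2, supernatant PGE2 quantified by immunoassay.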

human 15-PGDH = biological target: T1, human 15-PGDH (Homo sapiens, UniProt P15428); assay: Evaluation of 15-PGDH inhibitory activity (fluorescence enzyme assay, NAD+/PGE2); assay type: biochemical; conditions: human 15-PGDH enzyme, fluorescence Vmax
T1 construct: purchased R&D System 5660-DH
T1 sequence (P15428 1-266): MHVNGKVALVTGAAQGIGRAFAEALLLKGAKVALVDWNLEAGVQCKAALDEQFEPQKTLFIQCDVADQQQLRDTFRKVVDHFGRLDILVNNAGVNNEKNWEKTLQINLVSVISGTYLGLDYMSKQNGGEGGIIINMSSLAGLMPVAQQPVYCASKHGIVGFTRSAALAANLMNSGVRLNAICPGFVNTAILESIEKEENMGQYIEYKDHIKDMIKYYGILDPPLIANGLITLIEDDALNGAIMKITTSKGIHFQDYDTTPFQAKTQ
Protocol: 15-PGDH inhibition activity of Example compounds was measured as follows. 6.7 ng of human 15-PGDH (R&D System# 5660-DH) enzyme (10 µL) was added to a black 96 well plate, 60 µL of buffer (50 mM Tris-HCl, pH 7.5, 0.01% Tween 20) was added, and 10 µL of 200 µM β-Nicotinamide adenine dinucleotide sodium salt (Sigma, Cat# N0632-5G) was added. 10 µL of (10x) compound solution in DMSO was added and reacted for 10 minutes at room temperature.

## CNC(=O)c1ncc(-c2cccc3c(C(=O)N4CCCCC4)cnn23)cc1F [Example 250, 3-fluoro-N-methyl-5-[3-(piperidine-1-carbonyl)pyrazolo[1,5-a]pyridin-7-yl]pyridine-2-carboxamide]
A549 cells
  fold induction at 1 µM: > 1.5
Human 15-PGDH
  IC50: ≤ 100 nM

## O=C(Cc1ccccc1)Nc1cncc(-c2cccc3c(C(=O)N4CCCCC4)cnn23)c1 [Example 389, 2-phenyl-N-(5-(3-(piperidine-1-carbonyl)pyrazolo[1,5-a]pyridin-7-yl)pyridin-3-yl)acetamide]
A549 cells
  fold induction at 1 µM: > 1.5
Human 15-PGDH
  IC50: ≤ 100 nM

## O=C(c1cnn2c(-c3ccc(-c4noc(C(F)(F)F)n4)cc3)cccc12)N1CCCCC1 [Example 361, 1-piperidyl-[7-[4-[5-(trifluoromethyl)-1,2,4-oxadiazol-3-yl]phenyl]pyrazolo[1,5-a]pyridin-3-yl]methanone]
A549 cells
  fold induction at 1 µM: > 1.5
Human 15-PGDH
  IC50: ≤ 100 nM

## O=C(NCc1ccon1)c1ccc(-c2cccc3c(C(=O)N4CCCCC4)cnn23)cn1 [Example 89, N-(isoxazol-3-ylmethyl)-5-(3-(piperidine-1-carbonyl)pyrazolo[1,5-a]pyridin-7-yl)picolinamide]
A549 cells
  fold induction at 1 µM: > 1.5
Human 15-PGDH
  IC50: ≤ 100 nM

## N#Cc1ncc(-c2cccc3c(C(=O)N4CCCCC4)cnn23)cc1F [Example 205, 3-fluoro-5-[3-(piperidine-1-carbonyl)pyrazolo[1,5-a]pyridin-7-yl]pyridine-2-carbonitrile]
A549 cells
  fold induction at 1 µM: > 1.5
Human 15-PGDH
  IC50: ≤ 100 nM

## O=C(O)c1ncc(-c2cccc3c(C(=O)N4CCCCC4)cnn23)cc1Cl [Example 258, 3-chloro-5-[3-(piperidine-1-carbonyl)pyrazolo[1,5-a]pyridin-7-yl]pyridine-2-carboxylic acid]
A549 cells
  fold induction at 1 µM: < 1.5
Human 15-PGDH
  IC50: ≤ 100 nM

## O=C1NCCc2cc(-c3cccc4c(C(=O)N5CCCCC5)cnn34)ccc21 [Example 136, 6-(3-(piperidine-1-carbonyl)pyrazolo[1,5-a]pyridin-7-yl)-3,4-dihydroisoquinolin-1(2H)-one]
A549 cells
  fold induction at 1 µM: > 1.5
Human 15-PGDH
  IC50: ≤ 100 nM

## O=C(Nc1cncc(-c2cccc3c(C(=O)N4CCCCC4)cnn23)c1)c1cncc(F)c1 [Example 335, 5-fluoro-N-(5-(3-(piperidine-1-carbonyl)pyrazolo[1,5-a]pyridin-7-yl)pyridin-3-yl)nicotinamide]
A549 cells
  fold induction at 1 µM: > 1.5
Human 15-PGDH
  IC50: ≤ 100 nM

## O=C(c1cnn2c(-c3ccc(-c4n[nH]c(=O)o4)cc3)cccc12)N1CCCCC1 [Example 349, 5-[4-[3-(piperidine-1-carbonyl)pyrazolo[1,5-a]pyridin-7-yl]phenyl]-3H-1,3,4-oxadiazol-2-one]
A549 cells
  fold induction at 1 µM: > 1.5
Human 15-PGDH
  IC50: ≤ 100 nM

## N#CCCNC(=O)c1ccc(-c2cccc3c(C(=O)N4CCCCC4)cnn23)o1 [Example 90, N-(2-cyanoethyl)-5-(3-(piperidine-1-carbonyl)pyrazolo[1,5-a]pyridin-7-yl)furan-2-carboxamide]
A549 cells
  fold induction at 1 µM: > 1.5
Human 15-PGDH
  IC50: ≤ 100 nM

## CN(C)c1ncc(-c2cccc3c(C(=O)N4CCCCC4)cnn23)cc1C#N [Example 270, 2-(dimethylamino)-5-(3-(piperidine-1-carbonyl)pyrazolo[1,5-a]pyridin-7-yl)nicotinonitrile]
A549 cells
  fold induction at 1 µM: > 1.5
Human 15-PGDH
  IC50: ≤ 100 nM

## Cc1noc(C)c1-c1cc(-c2cccc3c(C(=O)N4CCCCC4)cnn23)cc(N2CCOC2=O)n1 [Example 368, 3-(6-(3,5-dimethylisoxazol-4-yl)-4-(3-(piperidine-1-carbonyl)pyrazolo[1,5-a]pyridin-7-yl)pyridin-2-yl)oxazolidin-2-one]
A549 cells
  fold induction at 1 µM: > 1.5
Human 15-PGDH
  IC50: ≤ 100 nM

## Nc1cncc(-c2cccc3c(C(=O)N4CCCCC4)cnn23)c1 [Example 9, (7-(5-aminopyridin-3-yl)pyrazolo[1,5-a]pyridin-3-yl)(piperidin-1-yl)methanone]
A549 cells
  fold induction at 1 µM: > 1.5
Human 15-PGDH
  IC50: ≤ 100 nM

## O=C(c1cnn2c(-c3cncc(-c4noc(=O)[nH]4)c3)cccc12)N1CCCCC1 [Example 297, 3-(5-(3-(piperidine-1-carbonyl)pyrazolo[1,5-a]pyridin-7-yl)pyridin-3-yl)-1,2,4-oxadiazol-5(4H)-one]
A549 cells
  fold induction at 1 µM: < 1.5
Human 15-PGDH
  IC50: ≤ 100 nM

## O=C(Nc1cccc(-c2cccc3c(C(=O)N4CCCCC4)cnn23)c1)C1CCCCC1 [Example 96, N-(3-(3-(piperidine-1-carbonyl)pyrazolo[1,5-a]pyridin-7-yl)phenyl)cyclohexanecarboxamide]
A549 cells
  fold induction at 1 µM: < 1.5
Human 15-PGDH
  IC50: ≤ 100 nM

## CC(C)NC(=O)c1ccc(-c2cccc3c(C(=O)N4CCCCC4)cnn23)cn1 [Example 76, N-isopropyl-5-(3-(piperidine-1-carbonyl)pyrazolo[1,5-a]pyridin-7-yl)picolinamide]
A549 cells
  fold induction at 1 µM: > 1.5
Human 15-PGDH
  IC50: ≤ 100 nM

## O=C(Cc1cncnc1)Nc1ccc(-c2cccc3c(C(=O)N4CCCCC4)cnn23)cn1 [Example 407, N-[5-[3-(piperidine-1-carbonyl)pyrazolo[1,5-a]pyridin-7-yl]-2-pyridyl]-2-pyrimidin-5-yl-acetamide]
A549 cells
  fold induction at 1 µM: > 1.5
Human 15-PGDH
  IC50: ≤ 100 nM

## O=C1NCc2cc(-c3cccc4c(C(=O)N5CCCCC5)cnn34)ccc21 [Example 143, 5-(3-(piperidine-1-carbonyl)pyrazolo[1,5-a]pyridin-7-yl)isoindolin-1-one]
A549 cells
  fold induction at 1 µM: > 1.5
Human 15-PGDH
  IC50: ≤ 100 nM

## COCCNC(=O)c1ccc(-c2cccc3c(C(=O)N4CCCCC4)cnn23)cc1 [Example 62, N-(2-methoxyethyl)-4-(3-(piperidine-1-carbonyl)pyrazolo[1,5-a]pyridin-7-yl)benzamide]
A549 cells
  fold induction at 1 µM: > 1.5
Human 15-PGDH
  IC50: ≤ 100 nM

## O=C(c1ncc(-c2cccc3c(C(=O)N4CCCCC4)cnn23)cc1F)N1CCC1 [Example 248, [7-[6-(azetidine-1-carbonyl)-5-fluoro-3-pyridyl]pyrazolo[1,5-a]pyridin-3-yl]-(1-piperidyl)methanone]
A549 cells
  fold induction at 1 µM: > 1.5
Human 15-PGDH
  IC50: ≤ 100 nM

## N#CCNC(=O)c1cncc(-c2cccc3c(C(=O)N4CCCCC4)cnn23)c1 [Example 52, N-(cyanomethyl)-5-(3-(piperidine-1-carbonyl)pyrazolo[1,5-a]pyridin-7-yl)nicotinamide]
A549 cells
  fold induction at 1 µM: > 1.5
Human 15-PGDH
  IC50: ≤ 100 nM

## O=C(c1cnn2c(-c3cc(Cl)cnc3F)cccc12)N1CCCCC1 [Example 283, (7-(5-chloro-2-fluoropyridin-3-yl)pyrazolo[1,5-a]pyridin-3-yl)(piperidin-1-yl)methanone]
A549 cells
  fold induction at 1 µM: < 1.5
Human 15-PGDH
  IC50: ≤ 100 nM

## N#CCCNC(=O)c1ccc(-c2cccc3c(C(=O)N4CCCCC4)cnn23)cc1 [Example 69, N-(2-cyanoethyl)-4-(3-(piperidine-1-carbonyl)pyrazolo[1,5-a]pyridin-7-yl)benzamide]
A549 cells
  fold induction at 1 µM: > 1.5
Human 15-PGDH
  IC50: ≤ 100 nM

## O=C1NCc2ccc(-c3cccc4c(C(=O)N5CC6(CCC6)C5)cnn34)cc21 [Example 390, 6-(3-(2-azaspiro[3.3]heptane-2-carbonyl)pyrazolo[1,5-a]pyridin-7-yl)isoindolin-1-one]
A549 cells
  fold induction at 1 µM: > 1.5
Human 15-PGDH
  IC50: ≤ 100 nM

## O=C(NCc1ccon1)c1ccc(-c2cccc3c(C(=O)N4CCCCC4)cnn23)cc1 [Example 73, N-(isoxazol-3-ylmethyl)-4-(3-(piperidine-1-carbonyl)pyrazolo[1,5-a]pyridin-7-yl)benzamide]
A549 cells
  fold induction at 1 µM: > 1.5
Human 15-PGDH
  IC50: ≤ 100 nM

## C[C@H]1CCCN(C(=O)c2cnn3c(-c4ccc5c(c4)C(=O)NC5)cccc23)C1 [Example 386, (S)-6-(3-(3-methylpiperidine-1-carbonyl)pyrazolo[1,5-a]pyridin-7-yl)isoindolin-1-one]
A549 cells
  fold induction at 1 µM: > 1.5
Human 15-PGDH
  IC50: ≤ 100 nM

## O=C(c1cnn2c(-c3ccc(N4CCOCC4)nc3)cccc12)N1CCCCC1 [Example 108, (7-(6-morpholinopyridin-3-yl)pyrazolo[1,5-a]pyridin-3-yl)(piperidin-1-yl)methanone]
A549 cells
  fold induction at 1 µM: > 1.5
Human 15-PGDH
  IC50: ≤ 100 nM

## O=C(c1cnn2c(-c3cc(F)cc(-c4noc(=O)[nH]4)c3)cccc12)N1CCCCC1 [Example 299, 3-(3-fluoro-5-(3-(piperidine-1-carbonyl)pyrazolo[1,5-a]pyridin-7-yl)phenyl)-1,2,4-oxadiazol-5(4H)-one]
A549 cells
  fold induction at 1 µM: > 1.5
Human 15-PGDH
  IC50: ≤ 100 nM

## O=C1NCCc2ccc(-c3cccc4c(C(=O)N5CCCCC5)cnn34)cc21 [Example 131, 7-(3-(piperidine-1-carbonyl)pyrazolo[1,5-a]pyridin-7-yl)-3,4-dihydroisoquinolin-1(2H)-one]
A549 cells
  fold induction at 1 µM: > 1.5
Human 15-PGDH
  IC50: ≤ 100 nM

## Cc1nc(-c2cncc(-c3cccc4c(C(=O)N5CCCCC5)cnn34)c2)no1 [Example 319, (7-(5-(5-methyl-1,2,4-oxadiazol-3-yl)pyridin-3-yl)pyrazolo[1,5-a]pyridin-3-yl)(piperidin-1-yl)methanone]
A549 cells
  fold induction at 1 µM: > 1.5
Human 15-PGDH
  IC50: ≤ 100 nM

## Nc1n[nH]c2ccc(-c3cccc4c(C(=O)N5CCCCC5)cnn34)cc12 [Example 260, [7-(3-amino-1H-indazol-5-yl)pyrazolo[1,5-a]pyridin-3-yl]-(1-piperidyl)methanone]
A549 cells
  fold induction at 1 µM: > 1.5
Human 15-PGDH
  IC50: ≤ 100 nM
